What all share (format): in vivo
Experiment [1] has as its system winter wheat, Triticum aestivum cv. Hereward. Nature of the experiment: Drought stress tolerance of wheat plants. Conditions: 100 nM aqueous solution, drought stress last 20 days, 30 days after planting; untreated 37%. As to the method:
To investigate the effect of 1-(2-methoxy-ethyl)-3-[1,2,3]thiadiazol-5-yl-urea and 1-furfuryl-[1,2,3]thiadiazol-5-yl-urea to drought-induced senescence, seeds of winter wheat, Triticum aestivum cv. Hereward, were washed under running water for 24 hours and then sown into trays with perlite (30×40 cm) and soaked by water, or 100 nM aqueous solution of 1-(2-methoxy-ethyl)-3-[1,2,3]thiadiazol-5-yl-urea or 1-furfuryl-[1,2,3]thiadiazol-5-yl-urea. The trays were placed in a growth chamber at 25° C. with 8/16 hours light/dark cycle at intensity […]. Plants were under drought stress last 20 days. 30 Days after planting it was counted how many plants survived on individual trays.

Experiment [2] has the same test system. Briefly: Saline stress-induced senescence of wheat plants. Conditions: 100 nM, 75 mM NaCl, assessed 25 and 30 days after planting. As to the method:
To investigate the effect of compound 6 to saline-induced senescence seeds of winter wheat, Triticum aestivum cv. Hereward, were washed under running water for 24 hours and then sown to 1 L containers on perlite soaked with water or 100 nM water solution of […]. Containers were placed in the growth chamber at 25° C. with a 16/8 h light period at 50 μmol·m^−2·s^−1. Seven days after planting the plants were treated by 75 mM NaCl solution. Plants were allowed to grow and 25 and 30 days after planting the result was assessed.

For experiment [3], the system named is spring barley (Hordeum vulgare), malting variety Bojos. Briefly: Field experiment, spring barley, pre-soaked seeds. The conditions noted are these: seeds pre-soaked in 50 μM solution. As to the method:
Seeds of spring barley (Hordeum vulgare), malting variety Bojos were pre-soaked in 50 μM solution of compound 6 or 65 and sown as described in example 15. For each variant at least 50 plants were used to obtain morphology parameters. Statistical evaluation was executed in stat. program PAST v. 2.17c.

For experiment [4] the test system is unchanged. Briefly: Field experiment, spring barley, foliar spraying. The conditions noted are these: 5 μM foliar; for Grain yield: control 7.653; for Number of grains/spike: control 23.49; for Thousand grain weight: control 45.85; for Number of tillers: control 4.61; for Number of spikes/m^2: control 700.4. The source says: The initial field experiments were done with spring barley (Hordeum vulgare), malting variety Bojos in field plots of University of Palacky in Olomouc. All field experiments were done according to criteria for Good Experimental Practices. Six repetitions (each 10 m^2) were used per one variant, sowing rate was 3.5 millions of germinated grains per hectare. Field trials were not treated by growth regulators and fungicides, except of applied compounds. Compounds 1-(2-methoxy-ethyl)-3-[1,2,3]thiadiazol-5-yl-urea and 1-(2-chloro-ethyl)-3-[1,2,3]thiadiazol-5-yl-urea were applied once in indicated time (Tillering, BBCH 23-25 or Inflorescence emergence, BBCH 51-53) by foliar spraying in concentration 5 μM. For each variant at least 50 plants were used to obtain morphology parameters. Statistical evaluation was executed in stat. program PAST v. 2.17c.

In experiment [5] the test system is winter oilseed rape. Briefly: Field experiment, winter oilseed rape, foliar spray. The conditions noted are these: 25 μM foliar spray, BBCH 50. How it is done:
(§1) All field experiments were done according to criteria for Good Experimental Practices. Six repetitions (10 m^2 each) were used per one variant. Field trials were not treated by growth regulators and fungicides, except of applied compound 1-furfuryl-[1,2,3]thiadiazol-5-yl-urea. N-furfuryl-N′-1,2,3-thiadiazol-5-yl-urea was applied once at the precise time (extension growth BBCH 50), by foliar spray at a concentration of 25 μM. For each variant at least 50 plants were used to obtain morphology parameters. Statistical evaluation was executed in stat. program PAST v. 2.17c.

For experiment [6], the system named is spring barley. Briefly: Field experiments, spring barley, years 2014 and 2015, foliar spray. As to the method: as §1
All field experiments were done according to criteria for Good Experimental Practices as described in example 17. N-furfuryl-N′-1,2,3-thiadiazol-5-yl-urea was applied once at the precise time (extension growth BBCH 50), by foliar spray at a concentration of 25 μM in a year 2014 and at a concentration of 5 μM in a year 2015. For each variant at least 50 plants were used to obtain morphology parameters. Statistical evaluation was executed in stat. program PAST v. 2.17c.

The mark [7] stands for this setting: Inflorescence emergence, BBCH 51-53.
Where [8] appears, read: Tillering, BBCH 23-25, listed as compound 6.

This note sets out measurements from US9993002B2, “1,2,3-thiadiazol-5yl-urea derivatives, use thereof for regulating plant senescence and preparations containing these derivatives” (USTAV EXPERIMENTALNI BOTANIKY AV CR, V.V.I., priority 2014, dated 2018).

Marks after values point to notes of the source that are not given here.

For `COCCNC(=O)Nc1cnns1` [Compound 6, 1-(2-methoxy-ethyl)-3-[1,2,3]thiadiazol-5-yl-urea], the plants survived in experiment [1] came to 82%. Besides, the “effect on saline stress-induced senescence (in words)” value in experiment [2] is “significantly delays stress-induced senescence”. The “grain yield compared to untreated control” value in experiment [3] is reported as 107.3%. For the same compound, in experiment [4] (setting [7]), the “Grain yield, % of control” value was 103.6%; the “Number of grains/spike, % of control” value was found to be 99.5%; the “Thousand grain weight, % of control” value amounted to 102.0%; the Grain yield is listed as 7.927 t/ha. Further, in experiment [4] (setting [7]), the Number of grains/spike was found to be 23.37 and the Thousand grain weight is recorded as 46.77 g. Besides, in experiment [4] (Tillering, BBCH 23-25), the “Grain yield, % of control” value turned out to be 111.3%; the “Number of grains/spike, % of control” value was 103.3%; the “Number of spikes/m^2, % of control” value was 110.3* %; the “Number of tillers, % of control” value is 115.7* %. Further, in experiment [4] (Tillering, BBCH 23-25), the “Thousand grain weight, % of control” value was 102.9%; the Number of tillers is 5.3*; the Grain yield worked out at 8.517 t/ha; the Number of grains/spike is on record as 24.27. In addition, in experiment [4] (Tillering, BBCH 23-25), the Thousand grain weight worked out at 47.18 g and the “Number of spikes/m^2” value is listed as 772.4*. For the same compound, in experiment [4] (setting [8]), the “Number of spikes/m^2, % of control” value turned out to be 110.3% and the “Number of tillers, % of control” value is given as 115.7%.
The compound `O=C(NCc1ccco1)Nc1cnns1` [Compound 84, N-furfuryl-N′-1,2,3-thiadiazol-5-yl-urea] came in with a plants survived in experiment [1] of 71%. Further, in experiment [5] (control 4.35), the “WTK (weight of a thousand kernels)” value is listed as 4.8 g. Further, the Seed yield turned out to be 6.038 t/ha in experiment [5] (control 4.994); 8.02 t/ha in experiment [6] (Year 2014, 25 μM foliar spray, control 7.65); 7.49 t/ha in experiment [6] (Year 2015, 5 μM foliar spray, control 7.01). The “WTK, % of control” value in experiment [5] (listed as Comp. 84) is given as 110.3%; in experiment [6] (Year 2014, 25 μM foliar spray), 100.06%. The same compound returned a grains per ear in experiment [6] (Year 2014, 25 μM foliar spray, control 23.5) of 24.6. This compound had a WTK in experiment [6] (Year 2014, 25 μM foliar spray, control 45.85) of 45.88 g.
Consider `O=C(NCCCl)Nc1cnns1` [Compound 65, 1-(2-Chloro-ethyl)-3-[1,2,3]thiadiazol-5-yl-urea], for which the “grain yield compared to untreated control” value in experiment [3] was 109.0%. In addition, in experiment [4] (setting [7]), the “Grain yield, % of control” value was 109.7%; the “Number of grains/spike, % of control” value came to 102.9%; the “Thousand grain weight, % of control” value amounted to 100.2%; the Grain yield amounted to 8.398 t/ha. In experiment [4] (setting [7]), this compound gave a Number of grains/spike of 24.17 and a Thousand grain weight of 45.96 g. Also, in experiment [4] (Tillering, BBCH 23-25), the “Grain yield, % of control” value was found to be 109.3%; the “Number of grains/spike, % of control” value is on record as 103.9%; the “Number of spikes/m^2, % of control” value is 109.2* %; the “Number of tillers, % of control” value is listed as 109.2%. Moreover, in experiment [4] (Tillering, BBCH 23-25), the “Thousand grain weight, % of control” value came out at 99.0%; the Number of tillers was determined as 5.0; the Grain yield amounted to 8.362 t/ha; the Number of grains/spike was found to be 24.42. Moreover, in experiment [4] (Tillering, BBCH 23-25), the Thousand grain weight was 45.35 g and the “Number of spikes/m^2” value is recorded as 764.8*. Besides, the “Number of spikes/m^2, % of control” value in experiment [4] (Tillering, BBCH 23-25, listed as compound 65) is 109.2%.
